In patent US8580768B2, “Cannabinoid receptor antagonists-inverse agonists useful for treating metabolic disorders, including obesity and diabetes” (Jenrin Discovery, Inc., priority 2010, dated 2013):

molecular target: T1, human cannabinoid CB1 receptor (Homo sapiens, UniProt P21554); assay: CB1 receptor affinity, [3H]CP-55,940 radioligand displacement on CHO cell membrane preparations; assay type: binding; conditions: not given
T1 construct: expressed in transfected cells; host or cells: Chinese hamster ovary (CHO) cells, stably transfected; membrane preparations
Protocol: CB1 receptor affinities can be determined using membrane preparations of Chinese hamster ovary (CHO) cells in which the human cannabinoid CB1 receptor is stably transfected (Biochem J. 1991, 279, 129-134) in conjunction with [3H]CP-55,940 as radioligand. After incubation of a freshly prepared cell membrane preparation with the [3H]-radioligand, with or without addition of test compound, separation of bound and free ligand is performed by filtration over glass fiber filters. Radioactivity on the filter is measured by liquid scintillation counting. The IC50 values can be determined from at least three independent measurements.
The CB1 IC50 values for tested compounds are as follows.

T1 sequence (P21554 whole entry): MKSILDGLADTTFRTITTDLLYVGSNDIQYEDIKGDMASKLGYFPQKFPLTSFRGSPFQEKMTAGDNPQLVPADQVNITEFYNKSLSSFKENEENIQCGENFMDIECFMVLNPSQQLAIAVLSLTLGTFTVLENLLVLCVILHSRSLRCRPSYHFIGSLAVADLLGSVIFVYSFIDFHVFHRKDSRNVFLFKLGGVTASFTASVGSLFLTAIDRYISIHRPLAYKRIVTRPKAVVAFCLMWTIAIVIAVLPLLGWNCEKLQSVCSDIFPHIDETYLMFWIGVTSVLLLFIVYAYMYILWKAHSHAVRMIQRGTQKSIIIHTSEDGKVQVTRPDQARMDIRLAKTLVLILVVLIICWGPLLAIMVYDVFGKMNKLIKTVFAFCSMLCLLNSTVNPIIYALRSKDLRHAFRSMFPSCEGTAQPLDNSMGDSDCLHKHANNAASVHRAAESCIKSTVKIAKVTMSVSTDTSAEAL

Row | SMILES | IC50 [nM]
1 | CCOP(=O)(OCC)C(C)NC(=NS(=O)(=O)c1ccc(Cl)cc1)N1CC(c2ccccc2)C(c2ccc(Cl)cc2)=N1 (stereo not shown) [compound 28] | 1000 to 10000

same assay, conditions: read-out: CB1 IC50

Row | SMILES | IC50 [nM]
2 | COc1ccc(C2=NN(C(=NS(=O)(=O)c3ccc(Cl)cc3)NC(C)C(N)=O)CC2c2ccccc2)cc1 (stereo not shown) [compound 1] | < 100
3 | NC(=O)C(CO)NC(=NS(=O)(=O)c1ccc(Cl)cc1)N1CC(c2ccccc2)C(c2ccc(Cl)cc2)=N1 (stereo not shown) [compound 2] | < 100
4 | CC(C)C(NC(=NS(=O)(=O)c1cccc(C(N)=O)c1)N1CC(c2ccccc2)C(c2ccc(Cl)cc2)=N1)C(N)=O (stereo not shown) [compound 4] | 100 to 1000
5 | NC(CNC(=NS(=O)(=O)c1ccc(Cl)cc1)N1CC(c2ccccc2)C(c2ccc(Cl)cc2)=N1)=NO (stereo not shown) [compound 6] | < 100
6 | CC(O)C(NC(=NS(=O)(=O)c1ccc(Cl)cc1)N1CC(c2ccccc2)C(c2ccc(Cl)cc2)=N1)C(N)=O (stereo not shown) [compound 7] | < 100
7 | NC(CCNC(=NS(=O)(=O)c1ccc(Cl)cc1)N1CC(c2ccccc2)C(c2ccc(Cl)cc2)=N1)=NO (stereo not shown) [compound 8] | < 100
8 | CC(C)C(NC(=NS(=O)(=O)c1cccc(C(=N)N)c1)N1CC(c2ccccc2)C(c2ccc(Cl)cc2)=N1)C(N)=O (stereo not shown) [compound 9] | 100 to 1000
9 | COc1cccc(S(=O)(=O)N=C(NC2(C(N)=O)CCC2)N2CC(c3ccccc3)C(c3ccc(Cl)cc3)=N2)c1 (stereo not shown) [compound 10] | < 100
10 | CC(O)C(NC(=NS(=O)(=O)c1ccc(Cl)cc1)N1CC(c2ccccc2)C(c2ccc(Cl)cc2)=N1)C(=O)NC(CO)C(N)=O (stereo not shown) [compound 11] | < 100
11 | CC(O)C(NC(=NS(=O)(=O)c1cccc(C(=N)N)c1)N1CC(c2ccccc2)C(c2ccc(Cl)cc2)=N1)C(N)=O (stereo not shown) [compound 13] | < 100
12 | COc1cccc(S(=O)(=O)N=C(NC(C)C(N)=O)N2CC(c3ccccc3)C(c3ccc(Cl)cc3)=N2)c1 (stereo not shown) [compound 18] | < 100
13 | COc1cccc(S(=O)(=O)N=C(NC(C(N)=O)C2CC2)N2CC(c3ccccc3)C(c3ccc(Cl)cc3)=N2)c1 (stereo not shown) [compound 21] | 100 to 1000
14 | COC(=O)C=CCNC(=NS(=O)(=O)c1ccc(Cl)cc1)N1CC(c2ccccc2)C(c2ccc(Cl)cc2)=N1 (stereo not shown) [compound 24] | < 100
15 | NC(=O)Cc1csc(NC(=NS(=O)(=O)c2ccc(Cl)cc2)N2CC(c3ccccc3)C(c3ccc(Cl)cc3)=N2)n1 (stereo not shown) [compound 27] | 1000 to 10000

The remaining lines, values ahead:

Row | IC50 [nM] | SMILES
16 | < 100 | NS(=O)(=O)CCNC(=NS(=O)(=O)c1ccc(Cl)cc1)N1CC(c2ccccc2)C(c2ccc(Cl)cc2)=N1 (stereo not shown) [compound 3]
17 | < 100 | CC(C)C(NC(=NS(=O)(=O)c1cccc(C#N)c1)N1CC(c2ccccc2)C(c2ccc(Cl)cc2)=N1)C(N)=O (stereo not shown) [compound 5]
18 | < 100 | CC(O)C(NC(=NS(=O)(=O)c1cccc(C#N)c1)N1CC(c2ccccc2)C(c2ccc(Cl)cc2)=N1)C(N)=O (stereo not shown) [compound 12]
19 | < 100 | COc1cccc(S(=O)(=O)N=C(NCCS(N)(=O)=O)N2CC(c3ccccc3)C(c3ccc(Cl)cc3)=N2)c1 (stereo not shown) [compound 14]
20 | < 100 | N#Cc1cccc(S(=O)(=O)N=C(NCCS(N)(=O)=O)N2CC(c3ccccc3)C(c3ccc(Cl)cc3)=N2)c1 (stereo not shown) [compound 15]
21 | < 100 | CC(NC(=NS(=O)(=O)c1cccc(C#N)c1)N1CC(c2ccccc2)C(c2ccc(Cl)cc2)=N1)C(N)=O (stereo not shown) [compound 16]
22 | < 100 | N#Cc1cccc(S(=O)(=O)N=C(NC2(C(N)=O)CCC2)N2CC(c3ccccc3)C(c3ccc(Cl)cc3)=N2)c1 (stereo not shown) [compound 17]
23 | < 100 | COc1ccc(C2=NN(C(=NS(=O)(=O)c3ccc(Cl)cc3)NCCS(N)(=O)=O)CC2c2ccccc2)cc1 (stereo not shown) [compound 20]
24 | < 100 | N#Cc1cccc(S(=O)(=O)N=C(NC(C(N)=O)C2CCC2)N2CC(c3ccccc3)C(c3ccc(Cl)cc3)=N2)c1 (stereo not shown) [compound 22]
25 | < 100 | NS(=O)(=O)CCNC(=O)CNC(=NS(=O)(=O)c1ccc(Cl)cc1)N1CC(c2ccccc2)C(c2ccc(Cl)cc2)=N1 (stereo not shown) [compound 23]
26 | < 100 | CC(O)C(NC(=NS(=O)(=O)c1ccc(Cl)cc1)N1CC(c2ccccc2)C(c2ccc(Cl)cc2)=N1)C(=O)NCCS(N)(=O)=O (stereo not shown) [compound 25]
27 | < 100 | NS(=O)(=O)CCNC(=O)C(CO)NC(=NS(=O)(=O)c1ccc(Cl)cc1)N1CC(c2ccccc2)C(c2ccc(Cl)cc2)=N1 (stereo not shown) [compound 26]

system: not given; assay: not given; conditions: type 2 diabetes patients not on other anti-diabetic medications; six months of treatment; baseline value 7.9; placebo reduction 0.3%; cited from earlier work

Row | SMILES | HbA1c levels lowered [%]
28 | Cc1c(C(=O)NN2CCCCC2)nn(-c2ccc(Cl)cc2Cl)c1-c1ccc(Cl)cc1 [rimonabant] | 0.8
